Experimental data reported in article PMC10301922, “Anti-Oxidant, Anti-Mutagenic Activity and Safety Evaluation of Antrocin” (Toxics, 2023).

Legend:
[1] = tested on: Salmonella typhimurium TA102; test: Ames test (plate incorporation), TA102
Sprague Dawley rats = test: 28-day oral toxicity test: histopathological examination; conditions: for Bone, femur: Hypertrophy, epiphysis; Score value / Bone marrow, femur: Hypocellularity; Score value / Bone marrow, sternum: Hypocellularity; Score value / Spleen: Atrophy, red pulp; Score value: grades 1-5
[2] = female rats, 7.5 mg/kg oral 28 d
[3] = female rats, 37.5 mg/kg oral 28 d
[4] = male rats, 37.5 mg/kg oral 28 d

C=C1CC[C@H]2C(C)(C)CCC[C@@]23C(=O)OC[C@@H]13 [Antrocin, (-)-Antrocin]
Number of Revertant ([1]; TA102, with S9, 0.003125 mg/plate): 352.0 ± 8.5 Colony/Plate | Number of Revertant ([1]; TA102, with S9, 0.00625 mg/plate): 326.7 ± 5.9 Colony/Plate | Number of Revertant ([1]; TA102, with S9, 0.025 mg/plate): 327.3 ± 7.7 Colony/Plate | Number of Revertant ([1]; TA102, with S9, 0.05 mg/plate): 322.0 ± 6.2 Colony/Plate | Number of Revertant ([1]; TA102, without S9, 0.003125 mg/plate): 245.7 ± 10.4 Colony/Plate | Number of Revertant ([1]; TA102, without S9, 0.00625 mg/plate): 246.0 ± 16.4 Colony/Plate | Number of Revertant ([1]; TA102, without S9, 0.025 mg/plate): 278.3 ± 4.5 Colony/Plate | Number of Revertant ([1]; TA102, without S9, 0.05 mg/plate): 270.0 ± 11.2 Colony/Plate | Adrenal gland: Congestion, cortex, focal, slight; incidence (Sprague Dawley rats; [2]): - | Aorta: histopathological lesions (Sprague Dawley rats; [2]): - | Bone, femur: Hypertrophy, epiphysis, diffuse, slight to moderate/severe; incidence (Sprague Dawley rats; [2]): 0/5 | Cervix: histopathological lesions (Sprague Dawley rats; [2]): - | Esophagus: histopathological lesions (Sprague Dawley rats; [2]): - | Eyes: histopathological lesions (Sprague Dawley rats; [2]): - | Heart: histopathological lesions (Sprague Dawley rats; [2]): - | Kidney: Cast, tubule, focal, slight; incidence (Sprague Dawley rats; [2]): - | Liver: Fatty change, multifocal, slight; incidence (Sprague Dawley rats; [2]): 1/5 | Lung: histopathological lesions (Sprague Dawley rats; [2]): - | Optic nerve: histopathological lesions (Sprague Dawley rats; [2]): - | Ovary: Increase, follicle, multifocal, moderate to moderate/severe; incidence (Sprague Dawley rats; [2]): 0/5 | Oviduct: histopathological lesions (Sprague Dawley rats; [2]): - | Pancreas: histopathological lesions (Sprague Dawley rats; [2]): - | Parathyroid gland: histopathological lesions (Sprague Dawley rats; [2]): - | Pituitary: histopathological lesions (Sprague Dawley rats; [2]): - | Salivary gland: histopathological lesions (Sprague Dawley rats; [2]): - | Sciatic nerve: histopathological lesions (Sprague Dawley rats; [2]): - | Skeletal muscle: histopathological lesions (Sprague Dawley rats; [2]): - | Skin: histopathological lesions (Sprague Dawley rats; [2]): - | Spinal cord: histopathological lesions (Sprague Dawley rats; [2]): - | Spleen: histopathological lesions (Sprague Dawley rats; [2]): - | Stomach: histopathological lesions (Sprague Dawley rats; [2]): - | Thymus: histopathological lesions (Sprague Dawley rats; [2]): - | Thyroid gland: histopathological lesions (Sprague Dawley rats; [2]): - | Tongue: histopathological lesions (Sprague Dawley rats; [2]): - | Trachea: histopathological lesions (Sprague Dawley rats; [2]): - | Urinary bladder: histopathological lesions (Sprague Dawley rats; [2]): - | Uterus: histopathological lesions (Sprague Dawley rats; [2]): - | Vagina: histopathological lesions (Sprague Dawley rats; [2]): - | Bone, femur: Hypertrophy, epiphysis; Score value (Sprague Dawley rats; [2]): 0 | Adrenal gland: Congestion, cortex, focal, slight; incidence (Sprague Dawley rats; [3]): - | Aorta: histopathological lesions (Sprague Dawley rats; [3]): - | Bone, femur: Hypertrophy, epiphysis, diffuse, slight to moderate/severe; incidence (Sprague Dawley rats; [3]): 0/5 | Cervix: histopathological lesions (Sprague Dawley rats; [3]): - | Esophagus: histopathological lesions (Sprague Dawley rats; [3]): - | Eyes: histopathological lesions (Sprague Dawley rats; [3]): - | Harderian gland: Infiltration, mononuclear cell, focal, minimal; incidence (Sprague Dawley rats; [3]): 1/5 | Heart: histopathological lesions (Sprague Dawley rats; [3]): - | Kidney: Cast, tubule, focal, slight; incidence (Sprague Dawley rats; [3]): - | Lung: histopathological lesions (Sprague Dawley rats; [3]): - | Optic nerve: histopathological lesions (Sprague Dawley rats; [3]): - | Ovary: Increase, follicle, multifocal, moderate to moderate/severe; incidence (Sprague Dawley rats; [3]): 0/5 | Oviduct: histopathological lesions (Sprague Dawley rats; [3]): - | Pancreas: histopathological lesions (Sprague Dawley rats; [3]): - | Parathyroid gland: histopathological lesions (Sprague Dawley rats; [3]): - | Pituitary: histopathological lesions (Sprague Dawley rats; [3]): - | Salivary gland: histopathological lesions (Sprague Dawley rats; [3]): - | Sciatic nerve: histopathological lesions (Sprague Dawley rats; [3]): - | Skeletal muscle: histopathological lesions (Sprague Dawley rats; [3]): - | Skin: histopathological lesions (Sprague Dawley rats; [3]): - | Spinal cord: histopathological lesions (Sprague Dawley rats; [3]): - | Spleen: histopathological lesions (Sprague Dawley rats; [3]): - | Stomach: histopathological lesions (Sprague Dawley rats; [3]): - | Thymus: histopathological lesions (Sprague Dawley rats; [3]): - | Thyroid gland: histopathological lesions (Sprague Dawley rats; [3]): - | Tongue: histopathological lesions (Sprague Dawley rats; [3]): - | Trachea: histopathological lesions (Sprague Dawley rats; [3]): - | Urinary bladder: histopathological lesions (Sprague Dawley rats; [3]): - | Uterus: histopathological lesions (Sprague Dawley rats; [3]): - | Vagina: histopathological lesions (Sprague Dawley rats; [3]): - | Bone, femur: Hypertrophy, epiphysis; Score value (Sprague Dawley rats; [3]): 0 | treatment-related lesions in the histopathological examination (Sprague Dawley rats; high dose (37.5 mg/kg) oral 28 d): no significant treatment-related lesions | Adrenal gland: Congestion, cortex, multifocal, slight; incidence (Sprague Dawley rats; male rats, 7.5 mg/kg oral 28 d): - | Aorta: histopathological lesions (Sprague Dawley rats; male rats, 7.5 mg/kg oral 28 d): - | Bone marrow, femur: Hypocellularity, diffuse, slight to moderate/severe; incidence (Sprague Dawley rats; male rats, 7.5 mg/kg oral 28 d): 0/5 | Bone marrow, sternum: Hypocellularity, diffuse, moderate; incidence (Sprague Dawley rats; male rats, 7.5 mg/kg oral 28 d): 0/5 | Bone, femur: Hypertrophy, epiphysis, diffuse, slight to moderate/severe; incidence (Sprague Dawley rats; male rats, 7.5 mg/kg oral 28 d): 0/5 | Coagulative gland: histopathological lesions (Sprague Dawley rats; male rats, 7.5 mg/kg oral 28 d): - | Epididymis: Granuloma, spermatic, focal, moderate; incidence (Sprague Dawley rats; male rats, 7.5 mg/kg oral 28 d): - | Esophagus: histopathological lesions (Sprague Dawley rats; male rats, 7.5 mg/kg oral 28 d): - | Eyes: histopathological lesions (Sprague Dawley rats; male rats, 7.5 mg/kg oral 28 d): - | Harderian gland: histopathological lesions (Sprague Dawley rats; male rats, 7.5 mg/kg oral 28 d): - | Heart: Infiltration, mononuclear cell, focal, minimal to slight; incidence (Sprague Dawley rats; male rats, 7.5 mg/kg oral 28 d): 1/5 | Intestine, large, Caecum: histopathological lesions (Sprague Dawley rats; male rats, 7.5 mg/kg oral 28 d): - | Intestine, large, Colon: histopathological lesions (Sprague Dawley rats; male rats, 7.5 mg/kg oral 28 d): - | Intestine, large, Rectum: histopathological lesions (Sprague Dawley rats; male rats, 7.5 mg/kg oral 28 d): - | Intestine, small, Duodenum: histopathological lesions (Sprague Dawley rats; male rats, 7.5 mg/kg oral 28 d): - | Intestine, small, Ileum: histopathological lesions (Sprague Dawley rats; male rats, 7.5 mg/kg oral 28 d): - | Intestine, small, Jejunum: histopathological lesions (Sprague Dawley rats; male rats, 7.5 mg/kg oral 28 d): - | Kidney: Cast, tubule, focal, minimal; incidence (Sprague Dawley rats; male rats, 7.5 mg/kg oral 28 d): - | Kidney: Cyst, tubule, focal, slight; incidence (Sprague Dawley rats; male rats, 7.5 mg/kg oral 28 d): 1/5 | Kidney: Infarct, tubule, focal, slight; incidence (Sprague Dawley rats; male rats, 7.5 mg/kg oral 28 d): 2/5 | Liver: histopathological lesions (Sprague Dawley rats; male rats, 7.5 mg/kg oral 28 d): - | Lung: histopathological lesions (Sprague Dawley rats; male rats, 7.5 mg/kg oral 28 d): - | Lymph node, Cervical: histopathological lesions (Sprague Dawley rats; male rats, 7.5 mg/kg oral 28 d): - | Lymph node, Mesenteric: histopathological lesions (Sprague Dawley rats; male rats, 7.5 mg/kg oral 28 d): - | Mammary gland: histopathological lesions (Sprague Dawley rats; male rats, 7.5 mg/kg oral 28 d): - | Optic nerve: histopathological lesions (Sprague Dawley rats; male rats, 7.5 mg/kg oral 28 d): - | Pancreas: histopathological lesions (Sprague Dawley rats; male rats, 7.5 mg/kg oral 28 d): - | Parathyroid gland: histopathological lesions (Sprague Dawley rats; male rats, 7.5 mg/kg oral 28 d): - | Pituitary: histopathological lesions (Sprague Dawley rats; male rats, 7.5 mg/kg oral 28 d): - | Salivary gland, Mandibular lobe: histopathological lesions (Sprague Dawley rats; male rats, 7.5 mg/kg oral 28 d): - | Salivary gland, Sublingual lobe: histopathological lesions (Sprague Dawley rats; male rats, 7.5 mg/kg oral 28 d): - | Sciatic nerve: histopathological lesions (Sprague Dawley rats; male rats, 7.5 mg/kg oral 28 d): - | Seminal vesicle: histopathological lesions (Sprague Dawley rats; male rats, 7.5 mg/kg oral 28 d): - | Skeletal muscle: histopathological lesions (Sprague Dawley rats; male rats, 7.5 mg/kg oral 28 d): - | Skin: histopathological lesions (Sprague Dawley rats; male rats, 7.5 mg/kg oral 28 d): - | Spinal cord: histopathological lesions (Sprague Dawley rats; male rats, 7.5 mg/kg oral 28 d): - | Spleen: Atrophy, red pulp, diffuse, slight to moderate; incidence (Sprague Dawley rats; male rats, 7.5 mg/kg oral 28 d): 0/5 | Stomach: histopathological lesions (Sprague Dawley rats; male rats, 7.5 mg/kg oral 28 d): - | Testis: histopathological lesions (Sprague Dawley rats; male rats, 7.5 mg/kg oral 28 d): - | Thymus: histopathological lesions (Sprague Dawley rats; male rats, 7.5 mg/kg oral 28 d): - | Thyroid gland: histopathological lesions (Sprague Dawley rats; male rats, 7.5 mg/kg oral 28 d): - | Tongue: histopathological lesions (Sprague Dawley rats; male rats, 7.5 mg/kg oral 28 d): - | Trachea: histopathological lesions (Sprague Dawley rats; male rats, 7.5 mg/kg oral 28 d): - | Urinary bladder: histopathological lesions (Sprague Dawley rats; male rats, 7.5 mg/kg oral 28 d): - | Bone marrow, femur: Hypocellularity; Score value (Sprague Dawley rats; male rats, 7.5 mg/kg oral 28 d): 0 | Bone marrow, sternum: Hypocellularity; Score value (Sprague Dawley rats; male rats, 7.5 mg/kg oral 28 d): 0 | Bone, femur: Hypertrophy, epiphysis; Score value (Sprague Dawley rats; male rats, 7.5 mg/kg oral 28 d): 0 | Spleen: Atrophy, red pulp; Score value (Sprague Dawley rats; male rats, 7.5 mg/kg oral 28 d): 0 | Adrenal gland: Congestion, cortex, multifocal, slight; incidence (Sprague Dawley rats; [4]): - | Aorta: histopathological lesions (Sprague Dawley rats; [4]): - | Bone marrow, femur: Hypocellularity, diffuse, slight to moderate/severe; incidence (Sprague Dawley rats; [4]): 0/5 | Bone marrow, sternum: Hypocellularity, diffuse, moderate; incidence (Sprague Dawley rats; [4]): 0/5 | Bone, femur: Hypertrophy, epiphysis, diffuse, slight to moderate/severe; incidence (Sprague Dawley rats; [4]): 0/5 | Coagulative gland: histopathological lesions (Sprague Dawley rats; [4]): - | Epididymis: Granuloma, spermatic, focal, moderate; incidence (Sprague Dawley rats; [4]): - | Esophagus: histopathological lesions (Sprague Dawley rats; [4]): - | Eyes: histopathological lesions (Sprague Dawley rats; [4]): - | Harderian gland: histopathological lesions (Sprague Dawley rats; [4]): - | Heart: Infiltration, mononuclear cell, focal, minimal to slight; incidence (Sprague Dawley rats; [4]): 1/5 | Intestine, large, Caecum: histopathological lesions (Sprague Dawley rats; [4]): - | Intestine, large, Colon: histopathological lesions (Sprague Dawley rats; [4]): - | Intestine, large, Rectum: histopathological lesions (Sprague Dawley rats; [4]): - | Intestine, small, Duodenum: histopathological lesions (Sprague Dawley rats; [4]): - | Intestine, small, Ileum: histopathological lesions (Sprague Dawley rats; [4]): - | Intestine, small, Jejunum: histopathological lesions (Sprague Dawley rats; [4]): - | Kidney: Cast, tubule, focal, minimal; incidence (Sprague Dawley rats; [4]): - | Kidney: Infarct, tubule, focal, slight; incidence (Sprague Dawley rats; [4]): 1/5 | Liver: histopathological lesions (Sprague Dawley rats; [4]): - | Lung: histopathological lesions (Sprague Dawley rats; [4]): - | Lymph node, Cervical: histopathological lesions (Sprague Dawley rats; [4]): - | Lymph node, Mesenteric: histopathological lesions (Sprague Dawley rats; [4]): - | Mammary gland: histopathological lesions (Sprague Dawley rats; [4]): - | Optic nerve: histopathological lesions (Sprague Dawley rats; [4]): - | Pancreas: histopathological lesions (Sprague Dawley rats; [4]): - | Parathyroid gland: histopathological lesions (Sprague Dawley rats; [4]): - | Pituitary: histopathological lesions (Sprague Dawley rats; [4]): - | Prostate gland: Infiltration, mononuclear cell, focal, minimal to slight; incidence (Sprague Dawley rats; [4]): 2/5 | Salivary gland, Mandibular lobe: histopathological lesions (Sprague Dawley rats; [4]): - | Salivary gland, Sublingual lobe: histopathological lesions (Sprague Dawley rats; [4]): - | Sciatic nerve: histopathological lesions (Sprague Dawley rats; [4]): - | Seminal vesicle: histopathological lesions (Sprague Dawley rats; [4]): - | Skeletal muscle: histopathological lesions (Sprague Dawley rats; [4]): - | Skin: histopathological lesions (Sprague Dawley rats; [4]): - | Spinal cord: histopathological lesions (Sprague Dawley rats; [4]): - | Spleen: Atrophy, red pulp, diffuse, slight to moderate; incidence (Sprague Dawley rats; [4]): 0/5 | Stomach: histopathological lesions (Sprague Dawley rats; [4]): - | Testis: histopathological lesions (Sprague Dawley rats; [4]): - | Thymus: histopathological lesions (Sprague Dawley rats; [4]): - | Thyroid gland: histopathological lesions (Sprague Dawley rats; [4]): - | Tongue: histopathological lesions (Sprague Dawley rats; [4]): - | Trachea: histopathological lesions (Sprague Dawley rats; [4]): - | Urinary bladder: histopathological lesions (Sprague Dawley rats; [4]): - | Bone marrow, femur: Hypocellularity; Score value (Sprague Dawley rats; [4]): 0 | Bone marrow, sternum: Hypocellularity; Score value (Sprague Dawley rats; [4]): 0 | Bone, femur: Hypertrophy, epiphysis; Score value (Sprague Dawley rats; [4]): 0 | Spleen: Atrophy, red pulp; Score value (Sprague Dawley rats; [4]): 0
